Test results published in ChEMBL document CHEMBL5226342, “Novel Reversible-Binding PET Ligands for Imaging Monoacylglycerol Lipase Based on the Piperazinyl Azetidine Scaffold” (J Med Chem, 2021).

Key:
[1] = Drug uptake in iv dosed CD-1 mouse kidney measured after 60 mins by Ex vivo whole body biodistribution based analysis; assay type: ADME, organism-based; details: 1 h
[2] = Drug uptake in iv dosed rhesus monkey cerebellum measured after 60 mins by PET imaging based analysis; assay type: ADME, organism-based, Macaca mulatta; details: in vivo, 1 h
[3] = Drug uptake in iv dosed rhesus monkey cortex measured after 60 mins by PET imaging based analysis; assay type: ADME, organism-based, Macaca mulatta; details: in vivo, 1 h
[4] = Drug uptake in iv dosed rhesus monkey striatum measured after 60 mins by PET imaging based analysis; assay type: ADME, organism-based, Macaca mulatta; details: in vivo, 1 h
[5] = Drug uptake in iv dosed rhesus monkey striatum pretreated with MAGL inhibitor, […] PET imaging based analysis; assay type: ADME, organism-based, Macaca mulatta; details: in vivo
[6] = Drug uptake in iv dosed rhesus monkey striatum by PET imaging based analysis; assay type: ADME, organism-based, Macaca mulatta; details: in vivo
[7] = Drug uptake in iv dosed rhesus monkey cerebellum by PET imaging based analysis; assay type: ADME, organism-based, Macaca mulatta; details: in vivo
[8] = Drug uptake in iv dosed rhesus monkey pons measured after 60 mins by PET imaging based analysis; assay type: ADME, organism-based, Macaca mulatta; details: in vivo, 1 h
[9] = Metabolic stability of the compound in iv dosed Sprague-Dawley rat plasma assessed as parent compound remaining measured after 60 mins by radio-HPLC analysis; assay type: ADME, organism-based; details: read-out: Stability
[10] = Drug uptake in iv dosed rhesus monkey cerebellum pretreated with MAGL inhibitor, […] PET imaging based analysis; assay type: ADME, organism-based, Macaca mulatta; details: in vivo
[11] = Drug uptake in mouse brain treated with MAGL inhibitor, JNJ-42226314 at 15 mins post-drug administration by PET imaging based analysis; assay type: ADME, tissue-based; details: in vivo, 0.25 h
[12] = Drug uptake in iv dosed CD-1 mouse liver measured after 60 mins by Ex vivo whole body biodistribution based analysis; assay type: ADME, organism-based; details: 1 h
[13] = Metabolic stability of the compound in iv dosed Sprague-Dawley rat brain assessed as parent compound remaining measured after 60 mins by radio-HPLC analysis; assay type: ADME, organism-based; details: read-out: Stability
[14] = Drug uptake in iv dosed rhesus monkey cortex pretreated with MAGL inhibitor, […] PET imaging based analysis; assay type: ADME, organism-based, Macaca mulatta; details: in vivo
[15] = Drug uptake in iv dosed rhesus monkey pons by PET imaging based analysis; assay type: ADME, organism-based, Macaca mulatta; details: in vivo
[16] = Drug uptake in iv dosed CD-1 mouse heart measured after 60 mins by Ex vivo whole body biodistribution based analysis; assay type: ADME, organism-based; details: 1 h
[17] = Metabolic stability of the compound in iv dosed Sprague-Dawley rat plasma assessed as parent compound remaining measured after 30 mins by radio-HPLC analysis; assay type: ADME, organism-based; details: read-out: Stability
[18] = Drug uptake in iv dosed Sprague-Dawley rat striatum measured for 90 mins by PET imaging based analysis; assay type: ADME, organism-based; details: in vivo, 1.5 h
[19] = Drug uptake in iv dosed rhesus monkey hippocampus measured after 60 mins by PET imaging based analysis; assay type: ADME, organism-based, Macaca mulatta; details: in vivo, 1 h
[20] = Drug uptake in iv dosed CD-1 mouse lung measured after 60 mins by Ex vivo whole body biodistribution based analysis; assay type: ADME, organism-based; details: 1 h
[21] = Drug uptake in iv dosed rhesus monkey hippocampus pretreated with MAGL inhibitor, […] PET imaging based analysis; assay type: ADME, organism-based, Macaca mulatta; details: in vivo
[22] = Drug uptake in iv dosed Sprague-Dawley rat cerebral cortex measured for 90 mins by PET imaging based analysis; assay type: ADME, organism-based; details: in vivo, 1.5 h
[23] = Drug uptake in iv dosed rhesus monkey hippocampus by PET imaging based analysis; assay type: ADME, organism-based, Macaca mulatta; details: in vivo
[24] = Drug uptake in iv dosed CD-1 mouse pancreas measured after 60 mins by Ex vivo whole body biodistribution based analysis; assay type: ADME, organism-based; details: 1 h
[25] = Drug uptake in iv dosed Sprague-Dawley rat pons measured for 90 mins by PET imaging based analysis; assay type: ADME, organism-based; details: in vivo, 1.5 h
[26] = Drug uptake in iv dosed CD-1 mouse small intestine measured after 60 mins by Ex vivo whole body biodistribution based analysis; assay type: ADME, organism-based; details: 1 h
[27] = Drug uptake in iv dosed rhesus monkey brain by PET imaging based analysis; assay type: ADME, organism-based, Macaca mulatta; details: in vivo
[28] = Drug uptake in iv dosed Sprague-Dawley rat hippocampus measured for 90 mins by PET imaging based analysis; assay type: ADME, organism-based; details: in vivo, 1.5 h
[29] = Drug uptake in iv dosed Sprague-Dawley rat cerebellum measured for 90 mins by PET imaging based analysis; assay type: ADME, organism-based; details: in vivo, 1.5 h
[30] = Metabolic stability of the compound in iv dosed Sprague-Dawley rat brain assessed as parent compound remaining measured after 30 mins by radio-HPLC analysis; assay type: ADME, organism-based; details: read-out: Stability
[31] = Drug uptake in iv dosed rhesus monkey cortex by PET imaging based analysis; assay type: ADME, organism-based, Macaca mulatta; details: in vivo

O=C(c1ccc2c(ccn2-c2ccc([18F])cc2)c1)N1CC(N2CCN(c3ncccn3)CC2)C1
Drug uptake [1]: Not Active | Drug uptake [2]: Active | Drug uptake [3]: Active | Drug uptake [4]: Active | Drug uptake [5]: Not Active | Drug uptake [6]: Active | Drug uptake [7]: Active | Drug uptake [8]: Not Active | remaining at 1 h [9]: 40% | Drug uptake [10]: Not Active | Drug uptake [11]: Not Active | Drug uptake [12]: Active | remaining at 1 h [13]: 98% | Drug uptake [14]: Not Active | Drug uptake [15]: Active | Drug uptake [16]: Not Active | remaining at 0.5 h [17]: 53% | Drug uptake [18]: Active | Drug uptake [19]: Active | Drug uptake [20]: Not Active | Drug uptake [21]: Not Active | SUVmax [22]: 1.4 | Drug uptake [23]: Active | Drug uptake [24]: Not Active | Drug uptake [25]: Active | Drug uptake [26]: Active | SUVmax [27]: 1.2 | Drug uptake [28]: Active | Drug uptake [29]: Active | remaining at 0.5 h [30]: 95% | Drug uptake [31]: Active
